Results reported in patent publication US10857110B2, “Antibacterial compounds” (CONSEJO NACIONAL DE INVESTIGACIONES CIENTÍFICAS Y TÉCNICAS …, priority 2016, dated 2020).
≈ marks a conversion by molar mass, not a printed value.

Legend:
Test in all cases: MIC/MBC antibiotic sensitivity (CLSI)
Assay type in all cases: cell-based
[1] = system: Burkholderia multivorans (CBC 020); conditions: Burkholderia multivorans; Tobramucin, CLSI criteria; B. multivorans (CBC 020); read-out: MIC (R/I/S category)
Experimental: (§1) The new compounds of the invention were synthesized following the general method of preparation (Tetrahedron, 2001, 57, 1671-1675), from the reaction between an intermediary compound of the acyl thiourea and HgCl2 in presence of trimethylamine. The products were adequately characterized regarding its chemistry. The antibacterial activity of the new compounds was assayed against two Gram-positive reference strains: Staphylococcus aureus (ATCC6538) and Bacillus cereus (ATCC10876), a fermenting Gram-negative strain: Escherichia coli (ATCC25922), and 26 non-fermenting Gram-negative isolates, including 3 reference strains: Pseudomonas aeruginosa (PAO1), Bordetella bronchiseptica (9.73H+), and Inquilinus limosus (DSM16000), and 23 isolates recovered from patients suffering from cystic fibrosis, including one Achromobacter xylosoxidans isolate, and 22 isolates belonging to the Burkholderia cepacia complex. The later were selected because they presented resistance to a high number of antimicrobial compounds, among a panel of 125 clinical isolates previously analyzed for its resistance against 17 antimicrobial compounds (1,2). The antibiotic sensitivity studies were performed by applying two quantitative methods which allow to determine the minimum inhibitory concentration (MIC) and the minimum bactericidal concentration (MBC).
(§2) The compounds obtained in Examples 1 and 2 were assayed against 23 isolates recovered from the sputum of patients suffering from cystic fibrosis being treated at the Sor Maria Ludovica Children Hospital (La Plata, Buenos Aires, Argentina). Nineteen of these isolates were selected for being highly resistant to most of the antimicrobial agents of clinical use from a panel of 125 isolates previously characterized in Martina et al. (1). Reference strains were also included: Gram (+) bacteria: B. cereus and S. aureus, fermenting Gram (−) bacteria: E. coli, and non-fermenting Gram (−) bacteria: Inquilinus limosus (DSM16000), B. bronchiseptica, and Pseudomonas aeruginosa (PAO1). The antibiotic sensitivity studies were performed applying two quantitative methods which allow to determine the minimum inhibitory concentration (MIC) and the minimum bactericidal concentration (MBC) according to the criteria established by the Clinical and Laboratory Standards Institute (CLSI) (4). For comparative purposes, three antibiotics commonly used in the treatment of pulmonary infections in cystic fibrosis patients were included in the study: tobramycin, ceftazidime and meropenem.

[2] = system: Bordetella bronchiseptica (9.73H+); conditions: B. bronchiseptica (9.73H+)
Experimental: as §1, §2

B. contaminans (HNBC001) = conditions: Tobramucin, CLSI criteria, read-out: MIC (R/I/S category)
Experimental: as §1, §2

[3] = system: Burkholderia multivorans (CBC 015); conditions: Burkholderia multivorans; Tobramucin, CLSI criteria; B. multivorans (CBC 015); read-out: MIC (R/I/S category)
Experimental: as §1, §2

[4] = system: Burkholderia multivorans (CBC 018); conditions: Burkholderia multivorans; Tobramucin, CLSI criteria; B. multivorans (CBC 018); read-out: MIC (R/I/S category)
Experimental: as §1, §2

[5] = system: Burkholderia cenocepacia (CBC 023); conditions: Burkholderia cenocepacia; Tobramucin, CLSI criteria; B. cenocepacia (CBC 023); read-out: MIC (R/I/S category)
Experimental: as §1, §2

[6] = system: Burkholderia cenocepacia (CBC 031); conditions: Burkholderia cenocepacia; Tobramucin, CLSI criteria; B. cenocepacia (CBC 031); read-out: MIC (R/I/S category)
Experimental: as §1, §2

[7] = system: Burkholderia seminalis (CBC 040); conditions: Burkholderia seminalis; Tobramucin, CLSI criteria; B. seminalis (CBC 040); read-out: MIC (R/I/S category)
Experimental: as §1, §2

[8] = system: Burkholderia multivorans (CBC 021); conditions: Burkholderia multivorans; Tobramucin, CLSI criteria; B. multivorans (CBC 021); read-out: MIC (R/I/S category)
Experimental: as §1, §2

[9] = system: Burkholderia cenocepacia (HE001); conditions: Burkholderia cenocepacia; Tobramucin, CLSI criteria; B. cenocepacia (HE001); read-out: MIC (R/I/S category)
Experimental: as §1, §2

[10] = system: Burkholderia seminalis (CBC 042); conditions: Burkholderia seminalis; Tobramucin, CLSI criteria; B. seminalis (CBC 042); read-out: MIC (R/I/S category)
Experimental: as §1, §2

[11] = system: Burkholderia multivorans (CBC 022); conditions: Burkholderia multivorans; Tobramucin, CLSI criteria; B. multivorans (CBC 022); read-out: MIC (R/I/S category)
Experimental: as §1, §2

[12] = system: Burkholderia multivorans (CBC 019); conditions: Burkholderia multivorans; Tobramucin, CLSI criteria; B. multivorans (CBC 019); read-out: MIC (R/I/S category)
Experimental: as §1, §2

[13] = system: Burkholderia multivorans (CBC 016); conditions: Burkholderia multivorans; Tobramucin, CLSI criteria; B. multivorans (CBC 016); read-out: MIC (R/I/S category)
Experimental: as §1, §2

[14] = system: Burkholderia cepacia (CBC 011); conditions: Burkholderia cepacia; Tobramucin, CLSI criteria; B. cepacia (CBC 011); read-out: MIC (R/I/S category)
Experimental: as §1, §2

[15] = system: Bacillus cereus (ATCC10876)
Experimental: as §1, §2

[16] = system: Burkholderia cenocepacia (CBC 032); conditions: Burkholderia cenocepacia; Tobramucin, CLSI criteria; B. cenocepacia (CBC 032); read-out: MIC (R/I/S category)
Experimental: as §1, §2

[17] = system: Burkholderia cepacia (CBC 010); conditions: Burkholderia cepacia; Tobramucin, CLSI criteria; B. cepacia (CBC 010); read-out: MIC (R/I/S category)
Experimental: as §1, §2

[18] = system: Burkholderia cenocepacia (CBC 035); conditions: Burkholderia cenocepacia; Tobramucin, CLSI criteria; B. cenocepacia (CBC 035); read-out: MIC (R/I/S category)
Experimental: as §1, §2

[19] = system: Inquilinus limosus (DSM16000); conditions: Tobramucin, CLSI criteria, read-out: MIC (R/I/S category)
Experimental: as §1, §2

[20] = system: Pseudomonas aeruginosa (PAO1); conditions: Pseudomonas aeruginosa, P. aeruginosa (PAO1)
Experimental: as §1, §2

[21] = system: Burkholderia cenocepacia (CBC 029); conditions: Burkholderia cenocepacia; Tobramucin, CLSI criteria; B. cenocepacia (CBC 029); read-out: MIC (R/I/S category)
Experimental: as §1, §2

[22] = system: Escherichia coli (ATCC25922); conditions: Escherichia coli, E. coli (ATCC25922)
Experimental: as §1, §2

[23] = system: Burkholderia cenocepacia (CBC 024); conditions: Burkholderia cenocepacia; Tobramucin, CLSI criteria; B. cenocepacia (CBC 024); read-out: MIC (R/I/S category)
Experimental: as §1, §2

SMILES: NC[C@H]1O[C@H](O[C@H]2[C@H](O)[C@@H](O[C@H]3O[C@H](CO)[C@@H](O)[C@H](N)[C@H]3O)[C@H](N)C[C@@H]2N)[C@H](N)C[C@@H]1O [Tobramucin, tobramycin]
- MIC [1]: > 16 µg/mL
- MBC ([2]; read-out: MBC): 62.5 µg/mL (≈ 134 µM)
- MIC ([2]; read-out: MIC): 62.5 µg/mL (≈ 134 µM)
- MIC (B. contaminans (HNBC001)): > 16 µg/mL
- MIC [3]: > 16 µg/mL
- MIC [4]: > 16 µg/mL
- MIC [5]: > 16 µg/mL
- MIC [6]: > 16 µg/mL
- MIC [7]: > 16 µg/mL
- MIC [8]: > 16 µg/mL
- MIC [9]: > 16 µg/mL
- MIC [10]: > 16 µg/mL
- MIC [11]: > 16 µg/mL
- MIC [12]: > 16 µg/mL
- MIC [13]: > 16 µg/mL
- MIC [14]: > 16 µg/mL
- MBC ([15]; read-out: MBC): 31.2 µg/mL (≈ 66.8 µM)
- MIC ([15]; read-out: MIC): 7.81 µg/mL (≈ 16.7 µM)
- MIC [16]: > 16 µg/mL
- MIC [17]: > 16 µg/mL
- MIC [18]: > 16 µg/mL
- MIC [19]: > 16 µg/mL
- MBC ([20]; read-out: MBC): 1.95 µg/mL (≈ 4.17 µM)
- MIC ([20]; read-out: MIC): 1.95 µg/mL (≈ 4.17 µM)
- MIC [21]: > 16 µg/mL
- MBC ([22]; read-out: MBC): 15.6 µg/mL (≈ 33.4 µM)
- MIC ([22]; read-out: MIC): 15.6 µg/mL (≈ 33.4 µM)
- MIC [23]: > 16 µg/mL
